This passage reports activity coefficient results from the NIST ThermoML archive (doi:10.1021/je200637v).

A short description of the data set: activity coefficient (dimensionless); of the first substance listed, at infinite dilution; xn = mol fraction of the nth substance listed. To be noted: Liquid, Chromatography, x1 = 0.

Numbers after ± are expanded uncertainties.

Take `CCC(C)CC` [3-methylpentane] + CCCCCCCC[N+](CCCCCCCC)(CCCCCCCC)CCCCCCCC.O=S(=O)([N-]S(=O)(=O)C(F)(F)F)C(F)(F)F: the activity coefficient (322.85 K) was 1.22 ± 0.04, the activity coefficient (332.65 K) came out at 1.22 ± 0.04 and the activity coefficient (343.15 K) was 1.21 ± 0.04.
For `CCC(C)=O` [butanone] + CCCCCCCCCC[N+](C)(C)C.O=S(=O)([N-]S(=O)(=O)C(F)(F)F)C(F)(F)F, the activity coefficient runs as follows: (322.85 K) 0.33 ± 0.04; (332.65 K) 0.32 ± 0.04; (343.15 K) 0.29 ± 0.04.
Consider `Cc1cccc(C)c1` [1,3-dimethylbenzene] + CCCCCCCC[N+](CCCCCCCC)(CCCCCCCC)CCCCCCCC.O=S(=O)([N-]S(=O)(=O)C(F)(F)F)C(F)(F)F, for which the activity coefficient by setting is: (332.65 K) 0.6 ± 0.03; (343.15 K) 0.62 ± 0.03.
In the case of `Cc1ccccc1C` [1,2-dimethylbenzene] + CCCC[N+](C)(CCCC)CCCC.O=S(=O)([N-]S(=O)(=O)C(F)(F)F)C(F)(F)F, the activity coefficient was determined as 1.38 ± 0.05 (322.85 K), 1.46 ± 0.06 (332.65 K) and 1.46 ± 0.06 (343.15 K).
Turning to `C1COCCO1` [1,4-dioxane] + CCCC[N+](C)(CCCC)CCCC.O=S(=O)([N-]S(=O)(=O)C(F)(F)F)C(F)(F)F, the activity coefficient reads like this: (322.85 K) 0.61 ± 0.03; (332.65 K) 0.67 ± 0.03; (343.15 K) 0.67 ± 0.03.
On to `CCCCCC` [hexane] + CCCCCCCC[N+](C)(C)C.O=S(=O)([N-]S(=O)(=O)C(F)(F)F)C(F)(F)F, for which the activity coefficient runs as follows: (322.85 K) 6.21 ± 0.28; (332.65 K) 5.83 ± 0.27; (343.15 K) 5.36 ± 0.24.
